Measured values from the NIST ThermoML archive (doi:10.1016/j.jct.2008.05.014).

What was measured:
[1] = xn = mol fraction of the nth substance listed; settings: Liquid, x1 = 1; for speed of sound: Pulse-echo method
[2] = Liquid; for speed of sound: Pulse-echo method
[3] = refractive index (Na D-line) (dimensionless); settings: 298.15 K; 101.33 kPa; Liquid; Standard Abbe refractometry

CCCCCCC [heptane] + CCCCCCCCCCCC
[1]
Settings | mass density [kg/m3] | speed of sound [m/s]
292.83 K, 101 kPa | – | 1153.2
292.88 K, 45590 kPa | – | 1417.7
292.88 K, 60790 kPa | – | 1485.5
292.88 K, 75990 kPa | – | 1547.2
292.88 K, 91180 kPa | – | 1605
292.88 K, 101320 kPa | – | 1641.2
292.89 K, 15200 kPa | – | 1257
292.89 K, 30390 kPa | – | 1342.4
293.15 K, 101 kPa | 683.803 | –
298.12 K, 101 kPa | – | 1130.1
298.15 K, 101 kPa | 679.548 | –
298.15 K, 15200 kPa | – | 1236.7
298.15 K, 30390 kPa | – | 1323.7
298.15 K, 45590 kPa | – | 1400.1
298.15 K, 60790 kPa | – | 1469.1
298.15 K, 91180 kPa | – | 1589.7
298.15 K, 101320 kPa | – | 1626.4
298.16 K, 75990 kPa | – | 1531.6
303.1 K, 101 kPa | – | 1108.5
303.13 K, 60790 kPa | – | 1453.5
303.13 K, 91180 kPa | – | 1575.6
303.13 K, 101320 kPa | – | 1612.6
303.14 K, 30390 kPa | – | 1306.4
303.14 K, 45590 kPa | – | 1383.7
303.14 K, 75990 kPa | – | 1517
303.15 K, 101 kPa | 675.293 | –
303.15 K, 15200 kPa | – | 1217.8
308.08 K, 101 kPa | – | 1087
308.12 K, 45590 kPa | – | 1367.9
308.12 K, 75990 kPa | – | 1502.7
308.12 K, 91180 kPa | – | 1561.5
308.12 K, 101320 kPa | – | 1599.1
308.13 K, 15200 kPa | – | 1199.2
308.13 K, 30390 kPa | – | 1289.3
308.13 K, 60790 kPa | – | 1438.4
308.15 K, 101 kPa | 671.015 | –
313.06 K, 101 kPa | – | 1065.6
313.1 K, 30390 kPa | – | 1272.5
313.1 K, 45590 kPa | – | 1352.5
313.1 K, 60790 kPa | – | 1423.8
313.1 K, 75990 kPa | – | 1488.7
313.1 K, 91180 kPa | – | 1548.1
313.1 K, 101320 kPa | – | 1585.7
313.11 K, 15200 kPa | – | 1180.7
313.15 K, 101 kPa | 666.684 | –
318.15 K, 101 kPa | 662.324 | –
318.28 K, 15200 kPa | – | 1161.8
318.28 K, 30390 kPa | – | 1255.3
318.28 K, 45590 kPa | – | 1336.5
318.28 K, 60790 kPa | – | 1408.6
318.28 K, 75990 kPa | – | 1474.4
318.28 K, 91180 kPa | – | 1534.3
318.28 K, 101320 kPa | – | 1572.3
318.35 K, 101 kPa | – | 1043

CCCCCCCCCCCC [dodecane]
[2]
Settings | mass density [kg/m3] | speed of sound [m/s]
292.87 K, 15200 kPa | – | 1384.9
292.87 K, 30390 kPa | – | 1457.9
292.87 K, 45590 kPa | – | 1524.1
292.87 K, 60790 kPa | – | 1584.5
292.87 K, 75990 kPa | – | 1640.7
292.87 K, 91180 kPa | – | 1692.8
292.87 K, 101320 kPa | – | 1725.8
292.89 K, 101 kPa | – | 1299.5
293.15 K, 101 kPa | 748.921 | –
298.15 K, 101 kPa | 745.269 | –
298.16 K, 101 kPa | – | 1278.9
298.16 K, 15200 kPa | – | 1365.9
298.16 K, 30390 kPa | – | 1440
298.16 K, 45580 kPa | – | 1507
298.16 K, 60790 kPa | – | 1568
298.16 K, 75990 kPa | – | 1625.2
298.16 K, 91180 kPa | – | 1677.7
298.16 K, 101320 kPa | – | 1711.1
303.14 K, 30390 kPa | – | 1423.8
303.14 K, 45590 kPa | – | 1491.4
303.14 K, 60790 kPa | – | 1553.1
303.14 K, 75990 kPa | – | 1610.9
303.14 K, 91180 kPa | – | 1664.1
303.14 K, 101320 kPa | – | 1697.4
303.15 K, 101 kPa | 741.636 | 1259.3
303.15 K, 15200 kPa | – | 1348.5
308.12 K, 101 kPa | – | 1240.2
308.13 K, 75990 kPa | – | 1596.8
308.13 K, 91180 kPa | – | 1650.9
308.14 K, 15200 kPa | – | 1331
308.14 K, 30390 kPa | – | 1407.6
308.14 K, 45590 kPa | – | 1476.3
308.14 K, 60790 kPa | – | 1538.6
308.15 K, 101 kPa | 738.031 | –
313.1 K, 101 kPa | – | 1221
313.15 K, 101 kPa | 734.369 | –
313.21 K, 15200 kPa | – | 1313.4
313.21 K, 30390 kPa | – | 1391.1
313.21 K, 45590 kPa | – | 1460.8
313.21 K, 60790 kPa | – | 1524.1
313.21 K, 75990 kPa | – | 1582.5
313.21 K, 91180 kPa | – | 1637.3
313.21 K, 101320 kPa | – | 1671.3
318.15 K, 101 kPa | 730.715 | –
318.29 K, 15200 kPa | – | 1296.2
318.29 K, 30390 kPa | – | 1375
318.29 K, 45590 kPa | – | 1445.5
318.29 K, 60790 kPa | – | 1509.7
318.29 K, 91180 kPa | – | 1624.1
318.29 K, 101320 kPa | – | 1658.5
318.3 K, 75990 kPa | – | 1568.8
318.39 K, 101 kPa | – | 1200.9

Settings | refractive index
[3] | 1.4197

CCCCCCC [heptane]
[2]
Settings | mass density [kg/m3] | speed of sound [m/s]
292.83 K, 101 kPa | – | 1153.2
292.88 K, 45590 kPa | – | 1417.7
292.88 K, 60790 kPa | – | 1485.5
292.88 K, 75990 kPa | – | 1547.2
292.88 K, 91180 kPa | – | 1605
292.88 K, 101320 kPa | – | 1641.2
292.89 K, 15200 kPa | – | 1257
292.89 K, 30390 kPa | – | 1342.4
293.15 K, 101 kPa | 683.803 | –
298.12 K, 101 kPa | – | 1130.1
298.15 K, 101 kPa | 679.548 | –
298.15 K, 15200 kPa | – | 1236.7
298.15 K, 30390 kPa | – | 1323.7
298.15 K, 45590 kPa | – | 1400.1
298.15 K, 60790 kPa | – | 1469.1
298.15 K, 91180 kPa | – | 1589.7
298.15 K, 101320 kPa | – | 1626.4
298.16 K, 75990 kPa | – | 1531.6
303.1 K, 101 kPa | – | 1108.5
303.13 K, 60790 kPa | – | 1453.5
303.13 K, 91180 kPa | – | 1575.6
303.13 K, 101320 kPa | – | 1612.6
303.14 K, 30390 kPa | – | 1306.4
303.14 K, 45590 kPa | – | 1383.7
303.14 K, 75990 kPa | – | 1517
303.15 K, 101 kPa | 675.293 | –
303.15 K, 15200 kPa | – | 1217.8
308.08 K, 101 kPa | – | 1087
308.12 K, 45590 kPa | – | 1367.9
308.12 K, 75990 kPa | – | 1502.7
308.12 K, 91180 kPa | – | 1561.5
308.12 K, 101320 kPa | – | 1599.1
308.13 K, 15200 kPa | – | 1199.2
308.13 K, 30390 kPa | – | 1289.3
308.13 K, 60790 kPa | – | 1438.4
308.15 K, 101 kPa | 671.015 | –
313.06 K, 101 kPa | – | 1065.6
313.1 K, 30390 kPa | – | 1272.5
313.1 K, 45590 kPa | – | 1352.5
313.1 K, 60790 kPa | – | 1423.8
313.1 K, 75990 kPa | – | 1488.7
313.1 K, 91180 kPa | – | 1548.1
313.1 K, 101320 kPa | – | 1585.7
313.11 K, 15200 kPa | – | 1180.7
313.15 K, 101 kPa | 666.684 | –
318.15 K, 101 kPa | 662.324 | –
318.28 K, 15200 kPa | – | 1161.8
318.28 K, 30390 kPa | – | 1255.3
318.28 K, 45590 kPa | – | 1336.5
318.28 K, 60790 kPa | – | 1408.6
318.28 K, 75990 kPa | – | 1474.4
318.28 K, 91180 kPa | – | 1534.3
318.28 K, 101320 kPa | – | 1572.3
318.35 K, 101 kPa | – | 1043

Settings | refractive index
[3] | 1.3853
